We go through 46 compounds from the Deep4Chem optical property database.

A short description of this series: photoluminescence quantum yield (fraction); solvent given as SMILES.
Where [1] appears, read: in O=P(c1ccccc1)(c1ccccc1)c1ccccc1Oc1ccccc1P(=O)(c1ccccc1)c1ccccc1.

For the compound `CC(C)[Si]1(C(C)C)c2cc(C#N)ccc2-c2ccc(N(c3ccccc3)c3ccccc3)cc21`, the photoluminescence quantum yield is, setting by setting: (in C1CCCCC1) 0.64; (in CC#N) 0.67; (in CCO) 0.72; (in CCOCC) 0.74; (in CS(C)=O) 0.81; (in ClCCl) 0.8. In addition, the photoluminescence quantum yield (in c1ccccc1) was 0.75.

`O=C1/C(=C2\Sc3ccc(S(=O)(=O)Nc4ccccc4)cc3C2=O)Sc2ccc(S(=O)(=O)Nc3ccccc3)cc21`: the photoluminescence quantum yield runs as follows: (in C1COCCO1) 0.358; (in CN(C)C=O) 0.018; (in CO) 0.006; (in CS(C)=O) 0.004.

Under “in c1cc(-c2cccc(-n3c4ccccc4c4ccccc43)c2)cc(-n2c3ccccc3c3ccccc32)c1”, `c1ccc(-c2nc(-c3ccccc3)nc(-c3ccc(-c4ccc5c(c4)C4(c6ccccc6-c6ccccc64)c4ccccc4N5c4ccccc4)cc3)n2)cc1` came in with a photoluminescence quantum yield of 0.82.

`N#CC(C#N)=Cc1ccc2nc(C#Cc3ccc(N(c4ccccc4)c4ccccc4)cc3)sc2c1`: where the note is “in Cc1ccccc1”, the photoluminescence quantum yield amounted to 0.47.

Under “in CCO”, `COc1ccc(C(=O)OCc2ccc3c4cccc5cccc(c6cccc2c63)c54)cc1` came in with a photoluminescence quantum yield of 0.93.

The compound `COc1ccc(C2=C/C(=C\c3ccc(C#N)cc3)C(=O)O2)cc1OC` showed a photoluminescence quantum yield (in C1COCCO1) of 0.45.

Regarding `Nc1ccc2[nH]ncc2c1`, the photoluminescence quantum yield turned out to be 0.14 (in C1CCCCC1), 0.18 (in CC#N), 0.37 (in CO) and 0.57 (in O).

In turn, `CCOC(=O)c1ccc(C2=Cc3cc4ccccc4cc3P2(=O)c2ccccc2)cc1` (stereo not given) showed a photoluminescence quantum yield (in ClCCl) of 0.54.

Consider `COc1ccc(-c2nnc(-c3cc(-c4nnc(-c5ccc(OC)cc5)o4)c(-n4c5ccccc5c5ccccc54)cc3-n3c4ccccc4c4ccccc43)o2)cc1`, for which the photoluminescence quantum yield (in Cc1ccccc1) came out at 0.133 and the photoluminescence quantum yield under setting [1] is 0.354.

`ClP1(Cl)=NP(Cl)(Cl)=NP(Cl)(Oc2ccc3ccc4cccc5ccc2c3c45)=N1` (stereo not given): the photoluminescence quantum yield (in ClCCl) was found to be 0.55.

Consider `Cn1ncc2c3c(C#N)c4c5ccccc5n(C)c4nc3ccc21`, for which the photoluminescence quantum yield (in CCOC(C)=O) turned out to be 0.51.

`CCN(CC)c1ccc2cc(/C=C/C3=C4CC/C(=C\c5cc6ccc(N(CC)CC)cc6oc5=O)C4=[O+][B-](F)(F)O3)c(=O)oc2c1`: the photoluminescence quantum yield reads like this: (in C1COCCO1) 0.3; (in CC(C)=O) 0.18; (in CCOC(C)=O) 0.2; (in CS(C)=O) 0.0068; (in Cc1ccccc1) 0.4; (in ClC(Cl)Cl) 0.22.

As to `CCCCC(CC)CN1C(=O)C2=C(c3ccc(-c4ccc(C5=C6C(C)=CC(C)=[N+]6[B-](F)(F)n6c(C)cc(C)c65)cc4)s3)N(CC(CC)CCCC)C(=O)C2=C1c1cccs1` (stereo not given), the photoluminescence quantum yield (in Cc1ccccc1) was determined as 0.57.

In turn, `COc1ccc(C2=[N+]3C(=Nc4c(-c5cc(OC)c(OC)c(OC)c5)c(-c5ccc(C(C)(C)C)cc5)c(-c5ccc(OC)cc5)n4[B-]3(F)F)C(c3cc(OC)c(OC)c(OC)c3)=C2c2ccc(C(C)(C)C)cc2)cc1` returned a photoluminescence quantum yield (in Cc1ccccc1) of 0.04.

For the compound `Nc1ccc2c(c1)C(=O)O/C2=C\c1ccc(Cl)cc1`, the photoluminescence quantum yield by setting is: (in CC#N) 0.08; (in CC(C)=O) 0.1; (in CC(C)CO) 0.2; (in CC(C)O) 0.18; (in CCCO) 0.18; (in CCO) 0.17. The photoluminescence quantum yield was determined as 0.11 (in CCOC(C)=O), 0.12 (in CCOCC) and 0.14 (in CO).

Turning to `c1cc2ccc1CCCc1ccc(c3nsnc13)CCC2`, the photoluminescence quantum yield (in C1CCCCC1) stood at 0.51, the photoluminescence quantum yield (in CC#N) was 0.19 and the photoluminescence quantum yield (in ClC(Cl)Cl) worked out at 0.49.

`N#C/C(=C\c1ccc(Cl)cc1)c1nc(-c2ccccc2)c(-c2ccccc2)s1`: the photoluminescence quantum yield (in CC#N) came to 0.004.

As to `CC(=O)c1cc(=O)n(C)c2cc(-c3ccc(N(C)C)cc3)sc12`, for the setting “in ClCCl”, the photoluminescence quantum yield came to 0.18.

`COc1ccc(O)c(C=O)c1` gave a photoluminescence quantum yield (in CO) of 0.03.

On to `CCC1(CC)c2cc(C#Cc3cccs3)ccc2-c2c1c1c(c3c2C(CC)(CC)c2cc(C#Cc4cccs4)ccc2-3)C(CC)(CC)c2cc(C#Cc3cccs3)ccc2-1`, for which the photoluminescence quantum yield (in C1CCOC1) turned out to be 0.58.

As to `CCOC(=O)c1ccc(NC(=O)COc2cc3c4c([nH]c3c(C)c2C)C(=O)CCC4)cc1`, the photoluminescence quantum yield is 0.031 (in C1COCCO1); 0.131 (in CC#N); 0.097 (in CCO); 0.123 (in CS(C)=O); 0.037 (in O); 0.075 (in c1ccccc1).

Under “in ClCCl”, `O=P1(c2ccccc2)C(c2ccc(C(F)(F)F)cc2)=Cc2cc3ccccc3cc21` (stereo not given) yielded a photoluminescence quantum yield of 0.42.

Where the note is “in C1COCCO1”, `COC(=O)c1ccc(/C=C2\C=C(c3ccc(OC)c(OC)c3)NC2=O)cc1` gave a photoluminescence quantum yield of 0.363.

As to `CN1/C(=C/C=C/C2=[N+](CCCCCC(=O)O)c3ccc(S(=O)(=O)[O-])cc3C2(C)C)C(C)(C)c2cc(S(=O)(=O)[O-])ccc21`, the photoluminescence quantum yield (in O) was 0.04.

Regarding `CCCCCOc1cc2oc(=O)c3c4ccc(N(c5ccccc5)c5ccccc5)cc4c4ccc5cccc6c(c1)c2c3c4c56`, under “in C1CCOC1”, the photoluminescence quantum yield was 0.752.

`CC(C)(C)c1ccc(-c2c3c(c(-c4ccccc4)c4cc5ccccc5cc24)Cc2c(c(-c4ccccc4)c4cc5ccccc5cc4c2-c2ccc(C(C)(C)C)cc2)C3)cc1` displayed a photoluminescence quantum yield (in ClCCl) of 0.16.

Take `CCOC(=O)CN1C(=O)C2=C(c3ccc(C#N)cc3)N(CC(=O)OCC)C(=O)C2=C1c1ccc(C#N)cc1`: the photoluminescence quantum yield was 0.32 (in CC#N), 0.72 (in CS(C)=O) and 0.29 (in Cc1ccccc1).

Regarding `CCCCCCCCC1(CCCCCCCC)c2cc(C=O)ccc2-c2ccc(/C=C/c3ccc(N(c4ccccc4)c4ccccc4)cc3)cc21`, the photoluminescence quantum yield came to 0.94 (in C1CCOC1); 0.67 (in C1COCCO1); 0.24 (in CC#N); 0.33 (in CC(C)=O); 0.6 (in CCCCCC); 0.6 (in CCOC(C)=O). The photoluminescence quantum yield (in CN(C)C=O) turned out to be 0.12; the photoluminescence quantum yield (in CS(C)=O) was determined as 0.2; the photoluminescence quantum yield (in Cc1ccccc1) was 0.58; the photoluminescence quantum yield (in ClC(Cl)Cl) was 0.53; the photoluminescence quantum yield (in ClCCl) worked out at 0.7.

`CC1=[N+]2C(=C(NC(C)c3ccccc3)c3ccc(C)n3[B-]2(F)F)C=C1c1cc2n(c1)[B-](F)(F)[N+]1=CC=CC1=C2c1c(C)cc(C)cc1C` (stereo not given): the photoluminescence quantum yield reads like this: (in C1CCCCC1) 0.31; (in CCOC(C)=O) 0.05.

Compound `CC1(C)OB(c2cc3ccc4cccc5ccc(c2)c3c45)OC1(C)C` returned a photoluminescence quantum yield (in Cc1ccccc1) of 0.72.

As to `CCc1cccc(CC)c1-c1c2ccccc2c(-c2c(CC)cccc2CC)c2cc3ccccc3cc12`, the photoluminescence quantum yield (in ClCCl) amounted to 0.56.

Consider `C[Si](C)(C)c1ccc2ccc3cccc4ccc1c2c34`, for which the photoluminescence quantum yield was 0.23 (in CCCCCC), 0.22 (in CO) and 0.36 (in ClCCl).

As for `COC(=O)C(NC(=O)OC(C)(C)C)c1ccc2oc(-c3cc(OC)ccc3OC)nc2c1` (stereo not given), the photoluminescence quantum yield by setting is: (in CC1CCCCC1) 0.51; (in CC#N) 0.35; (in CO) 0.37.

In turn, `Nc1n[n+]([O-])c2ccccc2[n+]1[O-]` yielded a photoluminescence quantum yield (in CC#N) of 0.006 and a photoluminescence quantum yield (in O) of 0.0033.

The compound `N#Cc1cc(C#N)c(-n2c3ccccc3c3c(-c4cccc5c4c4ccccc4n5-c4cc(-n5c6ccccc6c6ccccc65)c(C#N)cc4C#N)cccc32)cc1-n1c2ccccc2c2ccccc21` came in with a photoluminescence quantum yield under setting [1] of 0.61.

Consider `CNc1ccc2c(c1)C(=O)c1ccccc1-2`, for which the photoluminescence quantum yield (in C1CCCCC1) was 0.0073 and the photoluminescence quantum yield (in c1ccccc1) was found to be 0.001.

With `CCC1=C(C)C2=C(/C=C/c3ccc(OC)cc3)c3c(C)c(CC)c(C)n3[B-](F)(F)[N+]2=C1C`, the photoluminescence quantum yield (in ClCCl) came to 0.01.

Compound `COc1ccccc1C1=C2C(C)=CC(C)=[N+]2[B-](F)(F)n2c(C)cc(C)c21` registered a photoluminescence quantum yield (in C1CCOC1) of 0.87; a photoluminescence quantum yield (in CC#N) of 0.57; a photoluminescence quantum yield (in CC(=O)C(C)(C)C) of 0.74; a photoluminescence quantum yield (in CC(C)=O) of 0.78; a photoluminescence quantum yield (in CCCCCC) of 0.98; a photoluminescence quantum yield (in CCOC(C)=O) of 0.76. The photoluminescence quantum yield (in CO) was 0.69.

`COCCOCCOCN1C(=O)c2ccc3c(-c4ccccc4)c4c5ccc6c7c(ccc(c(-c8ccccc8)c4c4ccc(c2c34)C1=O)c75)C(=O)N(COCCOCCOC)C6=O`: the photoluminescence quantum yield (in ClCCl) stood at 0.05.

Under “in CC#N”, `Cc1cccc2nc3c(=O)n(C)c(=O)nc-3n(C)c12` gave a photoluminescence quantum yield of 0.07.

With `CCCCCCN1C(=O)c2cccc3cc(/N=C\c4ccc(N(c5ccccc5)c5ccccc5)cc4)cc(c23)C1=O`, for the setting “in ClC(Cl)Cl”, the photoluminescence quantum yield is 0.14.

Consider `CC(C)(C)c1ccc2c(c1)c1cc(C(C)(C)C)ccc1n2-c1ccc(-n2c3ccc(C(C)(C)C)cc3c3cc(C(C)(C)C)ccc32)c(-c2nccnc2C#N)c1`, for which the photoluminescence quantum yield reads like this: (in Cc1ccccc1) 0.05; (in c1cc(-n2c3ccccc3c3ccccc32)cc(-n2c3ccccc3c3ccccc32)c1) 0.44.

For the compound `CCCCC1C(=O)c2cc(Oc3ccc(C(C)(C)C)cc3)c3c4c(Oc5ccc(C(C)(C)C)cc5)cc5c6c(cc(Oc7ccc(C(C)(C)C)cc7)c(c7c(Oc8ccc(C(C)(C)C)cc8)cc(c2c37)C1=O)c64)C1=C(C5=O)c2ccc3ccccc3[n+]2[B-](F)(F)O1` (stereo not given), the photoluminescence quantum yield (in ClCCl) worked out at 0.5.

Take `COc1ccc(C2=C(c3ccc(OC)cc3)C(C)(C)c3ccccc32)cc1`: the photoluminescence quantum yield (in C1CCCCC1) worked out at 0.09.

Turning to `CC(C)c1cccc(C(C)C)c1N1C(=O)c2cccc3c(Oc4ccc(C(C)(C)C)cc4)ccc(c23)C1=O`, the photoluminescence quantum yield (in ClCCl) worked out at 0.11.

On to `N#Cc1c(C#N)c2cc(Br)ccc2c2ccc(Br)cc12`, for which the photoluminescence quantum yield (in ClC(Cl)Cl) was found to be 0.01.
